# Test results reported in US20240207285A1 (Melt Pharmaceuticals, Inc., priority 2022, published 2024).
# Columns and labels:
# [1] = test system: subjects undergoing cataract extraction with lens replacement (CELR); assay: Phase 2 subjects achieving procedural sedation (RSS 2 or 3 without rescue); format: in vivo, human; conditions: Visit 2 (Day 1), Full Analysis Set
# Method: A Phase 2 efficacy and safety study of the MELT-300 formulation was conducted at nine sites with over 300 enrolled subjects. MELT-300 is a sublingual, needle- and opioid-free formulation for procedural sedation during cataract surgery. […] MELT-300 utilizes fast-dissolving delivery technology (Zydis®, Catalent Inc.) to rapidly dissolve the tablet for absorption across the sublingual mucosa.
# (§1) The Phase 2 study was factorial-designed, randomized, double-blind, placebo-controlled, and included parallel-cohorts. […] Primary efficacy endpoints included appropriate sedation during the cataract surgery and management of intraoperative pain during the surgery.
# Achievement of procedural sedation was evaluated for each subject (see TABLE 19). Success for procedural sedation for this Phase 2 study was defined as achieving target sedation level (Ramsay Sedation Scale (RSS) scale level 2 or 3) at the start of surgery without the need for rescue sedation medication, and no need for intraoperative rescue sedation medication to maintain target sedation level.
# [2] = test system: subjects undergoing cataract extraction with lens replacement (CELR); assay: Phase 2 mean intraoperative analgesia by the numeric pain rating scale; format: in vivo, human
# Method: An average of the available timepoints was also calculated.
# [3] = test system: subjects undergoing cataract extraction with lens replacement (CELR); assay: Phase 2 subject-rated worst pain during surgery by the numeric pain rating scale; format: in vivo, human; conditions: carry forward
# [4] = test system: subjects undergoing cataract extraction with lens replacement (CELR); assay: Phase 2 subjects achieving analgesia response (NPRS <4); format: in vivo, human; conditions: Visit 2 (Day 1), observed
# Method: (§2) The number of subjects achieving analgesia response (observed) in the full analysis set was determined. Success in analgesia response was defined as NPRS <4 at the available at the available four intraoperative timepoints and a failure otherwise (e.g., any interoperative pain rescue was assumed to be a failure. Results are provided in TABLE 24. The number of subjects completing the surgery is provided in TABLE 25, and the number of subjects completing the surgery without interruption is provided in TABLE 26. For this measure, subjects completing the surgery without interruption (other than rescue medication) due to pain or anxiety were considered successes. The number of subjects requiring rescue sedative medication and those requiring analgesic medication are provided in TABLES 27 and 28, respectively. For all TABLES 24-28, p-Values between pairs of treatments were calculated and are provided.
# [5] = test system: subjects undergoing cataract extraction with lens replacement (CELR); assay: Phase 2 subjects completing the surgery; format: in vivo, human; conditions: Visit 2 (Day 1); Full Analysis Set
# Method: as §2
# [6] = test system: subjects undergoing cataract extraction with lens replacement (CELR); assay: Phase 2 subjects completing the surgery without interruption; format: in vivo, human; conditions: Visit 2 (Day 1); Full Analysis Set
# Method: as §2
# [7] = test system: subjects undergoing cataract extraction with lens replacement (CELR); assay: Phase 2 subjects requiring rescue sedative medication; format: in vivo, human; conditions: Visit 2 (Day 1)
# Method: as §2
# [8] = test system: subjects undergoing cataract extraction with lens replacement (CELR); assay: Phase 2 subjects requiring rescue analgesic medication; format: in vivo, human; conditions: Visit 2 (Day 1); Full Analysis Set
# Method: as §2
# [9] = test system: subjects undergoing cataract extraction with lens replacement (CELR); assay: Phase 2 subjects wanting study drug again for a second surgery (11-point Likert scale); format: in vivo, human
# Description: Post-operation, subjects were asked whether they would want the study drug again for a second surgery using an 11-point Likert scale of 0 (not likely at all) to 10 (extremely likely).
# [10] = test system: subjects undergoing cataract extraction with lens replacement (CELR); assay: Phase 2 subjects receiving opioid concomitant medication postoperatively; format: in vivo, human
# [11] = test system: subjects undergoing cataract extraction with lens replacement (CELR); assay: Phase 2 treatment-emergent ocular adverse events (study eye, non-study eye, either eye); conditions: for Eye disorders, % / General disorders and administration site conditions, % / Infections and infestations, % / Injury, poisoning and procedural complications, % / Investigations, %: system organ class
# Method: as §1
# The study eye (TABLE 31) non-study eye (TABLE 32), or either eye (TABLE 33) was assessed. TEAES were defined as events that started on or after the date of the study drug administration through the end of Visit 4 or early withdrawal. Subjects with one or more adverse event within a level of Medical Dictionary for Regulatory Activities (MedDRA) were counted only once in that level.
# [12] = Average of available timepoints, adjusted for site table, carry forward
# [13] = Average of available timepoints, carry forward
# [14] = Average of available timepoints, observed
# [15] = Corneal incision, adjusted for site table, carry forward
# [16] = Corneal incision, carry forward
# [17] = Insertion of the phacoemulsion probe, adjusted for site table, carry forward
# [18] = Insertion of the phacoemulsion probe, carry forward
# [19] = Insertion of the phacoemulsion probe, observed
# [20] = Insertion of the speculum, adjusted for site table, carry forward
# [21] = Insertion of the speculum, carry forward
# [22] = Insertion of the speculum, observed
# [23] = Insertion of the synthetic replacement lens, adjusted for site table, carry forward
# [24] = Insertion of the synthetic replacement lens, carry forward
# [25] = Insertion of the synthetic replacement lens, observed
# [26] = 11-point Likert scale 0 (not likely at all) to 10 (extremely likely)
compound,measurement,setting,value
CNC1(c2ccccc2Cl)CCCCC1=O (stereo not drawn) [Ketamine 50 mg],"Subjects achieving procedural sedation: No, %",[1],36.7%
same,"Subjects achieving procedural sedation: Yes, %",[1]; RSS 2 or 3 without rescue sedation,63.3%
same,"Intraoperative NPRS, LS Mean","[2]; Average of available timepoints, adjusted for site (study center covariate), carry forward",1.89
same,"Intraoperative NPRS, mean",[2]; [12],2.16
same,"Intraoperative NPRS, median",[2]; [12],1.75
same,"Intraoperative NPRS, mean",[2]; [13],2.16
same,"Intraoperative NPRS, median",[2]; [13],1.75
same,"Intraoperative NPRS, LS Mean","[2]; Average of available timepoints, carry forward, repeated measures model",2.16
same,"Intraoperative NPRS, mean",[2]; [14],2.00
same,"Intraoperative NPRS, median",[2]; [14],1.75
same,"Intraoperative NPRS, LS Mean","[2]; Average of available timepoints, observed, repeated measures model",2.22
same,"Intraoperative NPRS, mean",[2]; [15],1.8
same,"Intraoperative NPRS, median",[2]; [15],1.0
same,"Intraoperative NPRS, mean",[2]; [16],1.8
same,"Intraoperative NPRS, median",[2]; [16],1.0
same,"Intraoperative NPRS, mean","[2]; Corneal incision, observed",1.7
same,"Intraoperative NPRS, median","[2]; Corneal incision, observed",1.0
same,"Intraoperative NPRS, mean",[2]; [17],2.5
same,"Intraoperative NPRS, median",[2]; [17],2.0
same,"Intraoperative NPRS, mean",[2]; [18],2.5
same,"Intraoperative NPRS, median",[2]; [18],2.0
same,"Intraoperative NPRS, mean",[2]; [19],2.1
same,"Intraoperative NPRS, median",[2]; [19],2.0
same,"Intraoperative NPRS, mean",[2]; [20],1.1
same,"Intraoperative NPRS, median",[2]; [20],1.0
same,"Intraoperative NPRS, mean",[2]; [21],1.1
same,"Intraoperative NPRS, median",[2]; [21],1.0
same,"Intraoperative NPRS, mean",[2]; [22],1.1
same,"Intraoperative NPRS, median",[2]; [22],1.0
same,"Intraoperative NPRS, mean",[2]; [23],3.3
same,"Intraoperative NPRS, median",[2]; [23],3.0
same,"Intraoperative NPRS, mean",[2]; [24],3.3
same,"Intraoperative NPRS, median",[2]; [24],3.0
same,"Intraoperative NPRS, mean",[2]; [25],2.5
same,"Intraoperative NPRS, median",[2]; [25],2.0
same,"Intraoperative NPRS, LS Mean Difference versus placebo","[2]; adjusted for site, carry forward",−0.30
same,"Intraoperative NPRS, LS Mean Difference versus placebo","[2]; carry forward, repeated measures model",−0.32
same,"Intraoperative NPRS, LS Mean Difference versus placebo","[2]; observed, repeated measures model",−0.26
same,"Worst Pain During Surgery, Mean Difference versus placebo",[3],−0.33
same,"Worst Pain During Surgery (NPRS), mean",[3]; Full Analysis Set,3.7
same,"Worst Pain During Surgery (NPRS), median",[3]; Full Analysis Set,4.0
same,"Subjects achieving analgesia response: Yes, %",[4]; NPRS <4 at four intraoperative timepoints,49.4%
same,"Subjects achieving analgesia response: No, %",[4],50.6%
same,"Subjects completing the surgery: No, %",[5],0 (0) %
same,"Subjects completing the surgery: Yes, %",[5],100.0%
same,"Subjects completing the surgery without interruption: No, %",[6],(6.3) %
same,"Subjects completing the surgery without interruption: Yes, %",[6],(93.7) %
same,"Subjects requiring rescue sedative medication: No, %",[7]; Full Analysis Set,(63.3) %
same,"Subjects requiring rescue sedative medication: Yes, %",[7]; Full Analysis Set,(36.7) %
same,"Subjects requiring rescue sedative medication: Intraoperatively, %",[7]; Intraoperatively,(6.3) %
same,"Subjects requiring rescue sedative medication: Pre-operatively, %",[7]; Pre-operatively,(30.4) %
same,"Subjects requiring rescue analgesic medication: No, %",[8],(59.5) %
same,"Subjects requiring rescue analgesic medication: Yes, %",[8],(40.5) %
same,"Want Study Drug Again, mean",[9]; [26],7.6
same,"Want Study Drug Again, median",[9]; [26],10.0
same,"Want Study Drug Again, Mean Difference versus placebo",[9]; unpaired t-test,−0.05
same,"Received Postoperative Opioid on Day 2: No, %",[10]; Day 2,(100.0) %
same,"Received Postoperative Opioid on Day 2: Yes, %",[10]; Day 2,(0.0) %
same,"Received Postoperative Opioid on Day 2-8: No, %",[10]; Day 2-8,(100.0) %
same,"Received Postoperative Opioid on Day 2-8: Yes, %",[10]; Day 2-8,(0.0) %
same,"Cataract operation complication, %",[11]; Either Eye,(0) %
same,"Conjunctivitis bacterial, %",[11]; Either Eye,(1.2) %
same,"Corneal abrasion, %",[11]; Either Eye,(0) %
same,"Corneal oedema, %",[11]; Either Eye,(1.2) %
same,"Endophthalmitis, %",[11]; Either Eye,(1.2) %
same,"Eye pain, %",[11]; Either Eye,(3.5) %
same,"Foreign body sensation in eyes, %",[11]; Either Eye,(0) %
same,"Intraocular pressure increased, %",[11]; Either Eye,(1.2) %
same,"Ocular hypertension, %",[11]; Either Eye,(1.2) %
same,"Pain, %",[11]; Either Eye,(0) %
same,"Paracentesis eye, %",[11]; Either Eye,(0) %
same,"Procedural pain, %",[11]; Either Eye,(0) %
same,"Subjects with Any Treatment-Emergent Ocular AEs, %",[11]; Either Eye,(8.2) %
same,"Vision blurred, %",[11]; Either Eye,(0) %
same,"Eye disorders, %",[11]; Either Eye,(5.9) %
same,"General disorders and administration site conditions, %",[11]; Either Eye,(0) %
same,"Infections and infestations, %",[11]; Either Eye,(2.4) %
same,"Injury, poisoning and procedural complications, %",[11]; Either Eye,(0) %
same,"Investigations, %",[11]; Either Eye,(1.2) %
same,"Conjunctivitis bacterial, %",[11]; Non-Study Eye,(1.2) %
same,"Eye pain, %",[11]; Non-Study Eye,(0) %
same,"Subjects with Any Treatment-Emergent Ocular AEs, %",[11]; Non-Study Eye,(1.2) %
same,"Vision blurred, %",[11]; Non-Study Eye,(0) %
same,"Eye disorders, %",[11]; Non-Study Eye,(0) %
same,"Infections and infestations, %",[11]; Non-Study Eye,(1.2) %
same,"Cataract operation complication, %",[11]; Study Eye,(0) %
same,"Corneal abrasion, %",[11]; Study Eye,(0) %
same,"Corneal oedema, %",[11]; Study Eye,(1.2) %
same,"Endophthalmitis, %",[11]; Study Eye,(1.2) %
same,"Eye pain, %",[11]; Study Eye,(3.5) %
same,"Foreign body sensation in eyes, %",[11]; Study Eye,(0) %
same,"Intraocular pressure increased, %",[11]; Study Eye,(1.2) %
same,"Ocular hypertension, %",[11]; Study Eye,(1.2) %
same,"Pain, %",[11]; Study Eye,(0) %
same,"Procedural pain, %",[11]; Study Eye,(0) %
same,"Subjects with Any Treatment-Emergent Ocular AEs, %",[11]; Study Eye,(7.1) %
same,"Eye disorders, %",[11]; Study Eye,(5.9) %
same,"General disorders and administration site conditions, %",[11]; Study Eye,(0) %
same,"Infections and infestations, %",[11]; Study Eye,(1.2) %
same,"Injury, poisoning and procedural complications, %",[11]; Study Eye,(0) %
same,"Investigations, %",[11]; Study Eye,(1.2) %
same,"Paracentesis eye, %",[11]; printed in the Non-Study Eye table,(0) %
